Assay results published in patent publication US11241394B2, “Treating vasculature related diseases or disorders using nanoparticles” (The Regents of the University of California, priority 2015, dated 2022).

Tested on: balloon-denuded rats (coronary restenosis model)
Test: Treatment of experimental rat model of coronary restenosis
Assay type: in vivo, Sprague-Dawley rats
Settings: 0.3 mg kg^-1 docetaxel i.v. on day 0 and 5, arteries collected day 14, n=6
Procedure: Sprague-Dawley rats following angioplasty-induced arterial denudation were injected intravenously with 1 mL of 5 mg mL^−1 docetaxel-loaded PNPs in 10% sucrose at a docetaxel dose of 0.3 mg kg^−1 on day 0 and day 5. As controls, animals receiving PBS, free docetaxel, and empty PNPs were prepared. On day 14, animals were euthanized with an overdose of ketamine-xylazine cocktail and perfused with PBS and 4% paraformaldehyde (PFA) at a pressure of 120-140 mm Hg. Segments of left and right carotid arteries were carefully dissected out, and the PFA-fixed carotid arteries were embedded with Tissue-Tek OCT compound (VWR International) in a tissue base mold and slowly submerged into pre-chilled 2-methyl butane until frozen completely. The frozen tissue block was then immediately stored at −80° C. until sectioning. Serial sectioning (15 μm per section) was performed with a Cyrotome cryostat machine (Leica), and the tissue sections were placed on polylysine-treated glass slides. Tissue sections on slides were dried at room temperature for 30 min before staining. For immunohistochemistry, frozen sections on slides were first washed with PBS to remove residual OCT medium and then subjected to standard hematoxylin and eosin (H&E) staining. Areas of intima and media were analyzed using Image J. Luminal obliteration is defined as the intima area/the area within the internal elastic lamina. […]

Q: With `CC(=O)O[C@@]12CO[C@@H]1C[C@H](O)[C@@]1(C)C(=O)[C@H](O)C3=C(C)[C@@H](OC(=O)[C@H](O)[C@@H](NC(=O)OC(C)(C)C)c4ccccc4)C[C@@](O)([C@@H](OC(=O)c4ccccc4)[C@H]21)C3(C)C` [free docetaxel, docetaxel] as the molecule, how does the “intima-to-media ratio (I/M)” value read?
A: Its value is 0.76±0.18.

Q: And the luminal obliteration?
A: The luminal obliteration was 33.6%.
